Assay results taken from article PMC5526570, “In vitro and in vivo anti-inflammatory active copper(II)-lawsone complexes” (PLoS ONE, 2017).
Entries after “also recorded” stand apart in the source; their conditions may differ.

Columns and labels:
NF-κB = NF-κB activity, secreted alkaline phosphatase reporter in THP1-XBlue-MD2-CD14 cells; type: cell-based, human; conditions: 1 h pretreatment, 24 h; for decrease of NF-κB activity stimulated by LPS: LPS 1 μg/mL; for decrease of NF-κB activation induced by Pam3CSK4: Pam3CSK4 100 ng/mL; for decrease of NF-κB activity stimulated by TNF-α: TNF-α 10 ng/mL
Method: The THP-1 human monocytic leukemia cell line was obtained from the European Collection of Cell Cultures (ECACC, Salisbury, UK) and THP1-XBlue™-MD2-CD14 cells were purchased from Invivogen (San Diego, USA). The cells were cultivated at 37°C in the RPMI 1640 medium supplemented with 2 mM L-glutamine, 10% FBS, 100 U/mL penicillin, and 100 μg/mL streptomycin in a humidified atmosphere containing 5% CO2. The culture was split twice a week when the cells had reached the concentration of 5–7×10^5 cells/mL. The cell count and viability were determined following staining with erythrosin B. The cells were counted manually using a hemocytometer and a light microscope.
One hundred microliters of the stabilized THP-1 cells (5th-20th passage) were split into 96-well plates to afford the concentration of 5×10^5 cells/mL, and differentiation into macrophages was induced by the addition of phorbol myristate acetate (PMA), as described previously. THP1-XBlue™-MD2-CD14 cells were used without any differentiation due to their stabile expression of MD2 and CD14 co-receptors.
THP1-XBlue™-MD2-CD14 cells were transferred into a serum-free medium at the concentration of 5×10^5 cells/mL. The floated cells were pretreated with the tested compounds (i.e. complexes 1–7, [Cu(Law)2(H2O)2]·0.5H2O, and Hlaw, respectively) and stimulated either by LPS (1 μg/mL), or by the addition of human recombinant TNF-α (10 ng/mL; Invivogen), or by Pam3CSK4 (100 ng/mL; Invivogen), a synthetic triacylated lipoprotein and selective Toll-like receptor 1/2 agonist. After 24 h of the incubation, 20 μL of the cultivation medium was mixed with 180 μL of Quanti-Blue medium and incubated according to the manufacturer’s instructions at 37°C for 2 h. The activity of released alkaline phosphatase, directly proportional to the NF-κB activity, was quantified from the difference in absorbance at 655 nm against the untreated control.

[1] = system: carrageenan-induced hind paw edema; test: Carrageenan-induced hind paw edema, plethysmometry; type: in vivo, rat; conditions: rats, i.p., dose corresponding to 40 mmol Cu/kg (ca. 20 mg/kg), 30 min before carrageenan, up to 6 h
Method: Wistar—SPF (6–8 weeks male) rats were obtained from the AnLab, Ltd., Prague. The animals were kept in plexiglass cages at the constant temperature of 22±1°C, and relative humidity of 55±5% for at least 1 week before the experiment. They were given food and water ad libitum. After a one-week adaptation period, male Wistar-SPF rats (200–250 g) were randomly assigned into ten groups (n = 7) of animals in the study. The first, control group, received 10% DMF (v/v in water, intraperitoneal; i.p.). The next eight groups were pretreated with complexes 1–7 and [Cu(Law)2(H2O)2]·0.5H2O (at the dose corresponding to […] Cu/kg; ca. 20 mg/kg) and involved into the carrageenan-treatment. The last group was treated with a non-steroidal anti-inflammatory drug Indomethacin (5 mg/kg), which served as a positive control (Indomethacin + carrageenan).
The carrageenan-induced hind paw edema model was used for the determination of the anti-inflammatory activity. […] The paw volume was measured immediately after the carrageenan injection and during the next 6 h after the administration of the edematogenic agent using a plethysmometer (model 7159, Ugo Basile, Varese, Italy). The degree of swelling induced was evaluated as the percentage of change in the volume of the right hind paw after the carrageenan treatment from the volume of the right hind paw before the carrageenan treatment.

[2] = system: PMN infiltration of hind paw tissue; test: Ex vivo histological evaluation of hind paw tissue (hematoxylin/eosin); type: in vivo, rat; conditions: rats, i.p., tissue after 6 h
From the text: All the animals were sacrificed by cervical dislocation, and immediately after that, the affected hind paws were separated and underwent the process of dehydration and fixation, and were embedded into paraffin blocks by means of standard protocols. The histopathological changes, like infiltration of different skin elements and deeper laying tissues by the polymorphonuclear white blood cells (dominantly neutrophils and lymphocytes) stained by the standard hematoxylin/eosin staining, were evaluated.

[3] = In vitro cytotoxicity, WST-1 assay, 24 h; type: cell-based; conditions: human, THP-1 monocytic leukemia cells
Method: The final concentration of the solvent in the culture medium was 0.1% (v/v). The cells were incubated at 37°C with 5% CO2 for 24 h. After the incubation, the cytotoxicity was determined by the Cell Proliferation Reagent WST-1 kit according to the manufacturer´s instructions.

TNF-α = TNF-α secretion in LPS-stimulated THP-1 macrophages (ELISA); type: cell-based, human; conditions: 100 nM, 1 h pretreatment, LPS 1 μg/mL, 24 h
Method: One hundred microliters of the stabilized THP-1 cells (5th-20th passage) were split into 96-well plates to afford the concentration of 5×10^5 cells/mL, and differentiation into macrophages was induced by the addition of phorbol myristate acetate (PMA), as described previously. […] Whereas the complexes were dissolved in PBS, lawsone was dissolved in DMSO. With respect to the results of cytotoxicity assay, the concentration of 100 nM should not affect the viability of the target cells in any way. For comparative purposes, a conventional drug prednisone was used at the standard dose of 1 μM dissolved in DMSO. Then, the DMSO was added to the rest of the wells. […] Vehicle-treated cells contained a vehicle (0.1% DMSO) only. The TNF-α secretion in the pretreated differentiated THP-1 macrophages was induced by the addition of 1 μg/mL LPS dissolved in sterile water. The basal cytokine expression level was determined in the control cells without the LPS stimulation. LPS triggers an inflammatory response through binding to toll-like receptor 4 (TLR-4) and subsequently activates the NF-κB signaling pathway. The cultivation medium was aspirated 24 h after the LPS addition and the cell residue was removed by centrifugation. The concentration of the secreted TNF-α was determined using the Human TNF-α Instant ELISA kit.

[4] = 100 nM, vs vehicle-treated cells

## O.O=C1C=C([O-])C(=O)c2ccccc21.O=C1C=C([O-])C(=O)c2ccccc21.[Cu+2].c1ccncc1 [compound 1, [Cu(Law)2(H2O)(py)]]
NF-κB; [4]
  decrease of NF-κB activity stimulated by LPS: did not affect
NF-κB; 100 nM
  decrease of NF-κB activation induced by Pam3CSK4: no noticeable effect
[1]
  antiedematous activity (hind paw swelling): diminish completely the swelling of the hind paw; also recorded: most active
[2]; (ca. 20 mg/kg)
  PMN infiltration / inflammatory reaction in hind paw tissue: mainly scarce and diffuse

## O=C1C=C([O-])C(=O)c2ccccc21.O=C1C=C([O-])C(=O)c2ccccc21.[Cu+2].c1c[nH]cn1.c1c[nH]cn1 [compound 2, [Cu(Law)2(Im)2]]
NF-κB; [4]
  decrease of NF-κB activity stimulated by LPS: 10%
NF-κB; 100 nM
  decrease of NF-κB activation induced by Pam3CSK4: no noticeable effect

## COc1ccc2c(c1)c(CC(=O)O)c(C)n2C(=O)c1ccc(Cl)cc1 [indomethacin, reference compound]
[2]; 5 mg/kg
  PMN infiltration / inflammatory reaction in hind paw tissue: mainly scarce and diffuse

## O=C1C=C(O)C(=O)c2ccccc21 [lawsone, 2-hydroxy-1,4-naphthoquinone]
[3]
  viability at 24 h, 10 µM: ~80%
NF-κB; [4]
  decrease of NF-κB activity stimulated by LPS: 19–24%
NF-κB; 100 nM
  decrease of NF-κB activity stimulated by TNF-α: 32%
TNF-α
  decrease of TNF-α expression/secretion in LPS-stimulated cells: 28%

## C[C@]12C=CC(=O)C=C1CC[C@@H]1[C@@H]2C(=O)C[C@@]2(C)[C@H]1CC[C@]2(O)C(=O)CO [prednisone, reference compound]
NF-κB; 1 μM
  decrease of NF-κB activity stimulated by LPS: 26%
  decrease of NF-κB activity stimulated by TNF-α: 37%

## [Cu(Law)2(3,5diMePz)2]·0.5H2O [compound 7]
NF-κB; [4]
  decrease of NF-κB activity stimulated by LPS: 19–24%
[1]
  antiedematous activity (hind paw swelling): least active
[2]; (ca. 20 mg/kg)
  PMN infiltration / inflammatory reaction in hind paw tissue: massive presence of PMN cells

## [Cu(Law)2(3-OHpy)2] [compound 6]
NF-κB; [4]
  decrease of NF-κB activity stimulated by LPS: 12%

## [Cu(Law)2(3-apy)2]·0.5H2O [compound 4]
NF-κB; [4]
  decrease of NF-κB activity stimulated by LPS: 19–24%

## [Cu(Law)2(H2O)(2-apy)]·0.5H2O [compound 3]
NF-κB; [4]
  decrease of NF-κB activity stimulated by LPS: 19–24%
NF-κB; 100 nM
  decrease of NF-κB activation induced by Pam3CSK4: most efficient
TNF-α
  decrease of TNF-α expression/secretion in LPS-stimulated cells: greatest potential
